{
  "source": "patent US20240207650A1",
  "about": "“ULTRASOUND-INDUCED MICROBUBBLE DRUG DELIVERY SYSTEM LOADING STABILIZED HYDROPHOBIC DRUG WITH POLYETHYLENE GLYCOL BASED NONIONIC SURFACTANT AND METHOD OF MANUFACTURING THE SAME” (SAHMYOOK UNIVERSITY INDUSTRY-ACADEMIC COOPERATION FOUNDATION, priority 2022, published 2024)",
  "system": "U87MG cells",
  "test": "Cytotoxic experiment, cell viability with tetrazolium salt derivatives",
  "assay_type": "cell-based",
  "settings": "72 hours, free drug 0.01-100 μM, FIG. 5",
  "description": "An experiment is performed to identify cytotoxicity of the manufactured microbubble drug delivery system and the drug delivery system loading the drugs. The experiment is performed after an experimental group manufactured by using the method in Example 1-2 (microbubble drug delivery system loading paclitaxel PTX@MB) and a control group (microbubble without loaded drugs MB) are deaerated to burst bubbles. Each solution is added to U87MG cells to respectively set final concentrations to 10%, 1%, 0.1%, 0.01%, and 0.001% and final concentrations of free paclitaxel are respectively set to 100 μM, 10 μM, 1 μM, 0.1 μM, and 0.01 μM. 5000 cells are grown in each well and cells are cultured for 72 hours. Then, a solution containing a cell culture fluid and tetrazolium salt derivatives are added to measure cell viability and in-vitro cytotoxicity of each material is identified.",
  "data": [
    {"compound": "CC(=O)O[C@H]1C(=O)[C@@]2(C)[C@H]([C@H](OC(=O)c3ccccc3)[C@]3(O)C[C@H](OC(=O)[C@H](O)[C@@H](NC(=O)c4ccccc4)c4ccccc4)C(C)=C1C3(C)C)[C@]1(OC(C)=O)CO[C@@H]1C[C@@H]2O", "note": "[free paclitaxel, Paclitaxel]", "values": [
      {"measurement": "concentration at which cytotoxicity is identified", "value": "above 1 μM"}
    ]}
  ]
}
